Values of other authors, collected in patent US20140088140A1 (TEVA PHARMACEUTICAL INDUSTRIES, LTD., priority 2012, published 2014).

Columns and labels:
[1] = in vivo
[2] = system: genes related to antigen presentation and corresponding inflammatory pathways; details: mainly via the NFkB pathway
Multiple Sclerosis = details: two phase III trials
Th1 / Th2 T helper cells = details: animal studies
[3] = system: Huntington's disease patients; details: 45 mg or 90 mg daily for 6 months

Structure (SMILES) | oral bioavailability [1] | expression of genes related to antigen presentation and inflammatory pathways [2] | safety and tolerability profile (Multiple Sclerosis) | Th1 to Th2 shift (Th1 / Th2 T helper cells) | symptomatic relief incl. hand movements, gait and balance (patients with HD) | tertiary endpoint UHDRS-TMS (changes in motor function) and individual mMS items (gait, dysarthria) [3]
CCN(C(=O)c1c(O)c2c(Cl)cccc2n(C)c1=O)c1ccccc1 [laquinimod] | high oral bioavailability | induced suppression | favorable safety and tolerability profile | shift with an anti-inflammatory profile |  | 
CCCN1CCC(c2cccc(S(C)(=O)=O)c2)CC1 [pridopidine, 4-[3-(methylsulfonyl)phenyl]-1-propyl-piperidine] |  |  |  |  | significant symptomatic relief | statistically significant effect of treatment
